These results are taken from ChEMBL document CHEMBL1159352, “Reaction of irofulven with zinc and acid” (J Nat Prod, 2003).

One may read the IC50 as the concentration at which inhibition is half-maximal. A high value points to weaker potency in that assay.

In the assay the test system is HL-60. Put plainly: Cytotoxicity against human HL60 cells after 48 hrs by trypan blue exclusion assay. The class given is functional, cell-based. The conditions noted are these: HL-60, 48 h.

`C=C1C(C)=Cc2c(O)c(C)c(CCO)c(C)c21` yielded an IC50 of 130 µM.

With `C=C1C(C)=Cc2c(O)c(C)c(CCOC(C)=O)c(C)c21`, inhibition was half-maximal at 110 µM (IC50). This IC50 and that of the molecule before are within 1.5-fold of each other.

`CC1=C(CO)c2c(C)c(CCO)c(C)c(O)c2C1`: the IC50 turned out to be 120 µM.

`CC1=C(CO)c2c(C)c(CCO)c(C)c(O)c2C1O` (stereo not given): half-maximal inhibition (IC50) required 114 µM.

In the case of `CC1=C2C(=C[C@@](C)(CO)[C@@H]2O)C(=O)[C@](C)(O)C12CC2` [ILLUDIN], the half-maximal inhibitory concentration (IC50) was 0.003 µM. This IC50 lies about 38000-fold lower than the previous one.
